According to patent US10046060B2, “Co-administration of an agent linked to an internalization peptide with an anti-inflammatory” (NoNO Inc., priority 2007, dated 2018):
Entries after “also recorded” stand apart in the source; their conditions may differ. Ends that are not written are not given here.

Tests used:
[1] = test system: humans; assay: Safety, Tolerability and Pharmacokinetic Study in humans: blood histamine; assay type: in vivo, human
Method: We carried out a Safety, Tolerability and Pharmacokinetic Study of Tat-NR2B9c in humans. Subjects were either normal, healthy, non-smoking males or post-menopausal or surgically sterile female subjects with a minimum age of 18 years. The subjects were either administered Tat-NR2B9c, Lot #: 124-134-001B, or were given placebo (Phosphate Buffered Saline), Lot #: 124-134-001A, administered as an intravenous infusion (10±1 minutes). Four subjects were dosed in each of Cohorts 1 to 3, and 10 subjects were dosed in each of Cohorts 4 to 8. All 62 subjects completed the study. Treatment periods for each cohort were as follows: Cohort 1: Sep. 14, 2006; Cohort 2: Sep. 26, 2006; Cohort 3: Oct. 6, 2006; Cohort 4: Oct. 20, 2006; Cohort 5: Nov. 6, 2006; Cohort 6: Dec. 4, 2006; Cohort 7: Dec. 17, 2006; Cohort 8: Feb. 25, 2007.
During the study period, 11 blood samples were collected for pharmacokinetic analysis from each subject at the following timepoints: 0.00 (pre-dose), 0.08 (5 minutes), 0.17 to 0.25 (10 to 15 minutes, precisely at the end of each individual drug infusion), 0.33 (20 minutes), 0.50, 0.75, 1.00, 2.00, 6.00, 12.00, and 24.00 hours post-dose. In addition, 8 blood samples were collected for histamine analysis from each subject at the following timepoints: 0.00 (pre-dose), and at 0.08 (5 minutes), 0.17 (10 minutes), 0.25, 0.50, 1.00, 2.00, and 24.00 hours post-dose.

[2] = test system: Sprague-Dawley rats; assay: Non-GLP blood pressure study in anesthetized rats at 50 mg/kg; assay type: in vivo, rat
Method: In one experiment, 5 male Sprague-Dawley rats received a 50 mg/kg Tat-NR2B9c bolus dose over 3 minutes. Blood pressure was monitored via a femora arterial catheter.

[3] = Maximum Tolerated Dose in preclinical animal trials, dogs; conditions: dog, in vivo

Sequence: YGRKKRRQRRRKLSSIESDV [Tat-NR2B9c]
- Number of Subjects with Histamine levels >10 nmol/L ([1]; NA-1 0.375 mg/kg (n = 8), Day 1, 24.00 hr): 0
- Number of Subjects with Histamine levels >10 nmol/L ([1]; NA-1 0.375 mg/kg (n = 8), Day 7): 0
- Number of Subjects with Histamine levels >10 nmol/L ([1]; NA-1 0.375 mg/kg (n = 8), Day 14): 0
- Number of Subjects with Histamine levels >10 nmol/L ([1]; NA-1 0.375 mg/kg (n = 8), Day 28 End-of-study): 0
- Number of Subjects with Histamine levels >10 nmol/L ([1]; NA-1 0.375 mg/kg (n = 8), Screening): 1
- Number of Subjects with Histamine levels >10 nmol/L ([1]; NA-1 0.75 mg/kg (n = 8), Day 1, 0.00 hr): 0
- Number of Subjects with Histamine levels >10 nmol/L ([1]; NA-1 0.75 mg/kg (n = 8), Day 1, 0.08 hr): 0
- Number of Subjects with Histamine levels >10 nmol/L ([1]; NA-1 0.75 mg/kg (n = 8), Day 1, 0.17 hr): 0
- Number of Subjects with Histamine levels >10 nmol/L ([1]; NA-1 0.75 mg/kg (n = 8), Day 1, 0.25 hr): 0
- Number of Subjects with Histamine levels >10 nmol/L ([1]; NA-1 0.75 mg/kg (n = 8), Day 1, 0.50 hr): 0
- Number of Subjects with Histamine levels >10 nmol/L ([1]; NA-1 0.75 mg/kg (n = 8), Day 1, 1.00 hr): 0
- Number of Subjects with Histamine levels >10 nmol/L ([1]; NA-1 0.75 mg/kg (n = 8), Day 1, 2.00 hr): 0
- Number of Subjects with Histamine levels >10 nmol/L ([1]; NA-1 0.75 mg/kg (n = 8), Day 1, 24.00 hr): 0
- Number of Subjects with Histamine levels >10 nmol/L ([1]; NA-1 0.75 mg/kg (n = 8), Day 7): 0
- Number of Subjects with Histamine levels >10 nmol/L ([1]; NA-1 0.75 mg/kg (n = 8), Day 14): 0
- Number of Subjects with Histamine levels >10 nmol/L ([1]; NA-1 0.75 mg/kg (n = 8), Day 28 End-of-study): 0
- Number of Subjects with Histamine levels >10 nmol/L ([1]; NA-1 0.75 mg/kg (n = 8), Screening): 0
- Number of Subjects with Histamine levels >10 nmol/L ([1]; NA-1 1.50 mg/kg (n = 8), Day 1, 0.00 hr): 0
- Number of Subjects with Histamine levels >10 nmol/L ([1]; NA-1 1.50 mg/kg (n = 8), Day 1, 0.08 hr): 0
- Number of Subjects with Histamine levels >10 nmol/L ([1]; NA-1 1.50 mg/kg (n = 8), Day 1, 0.17 hr): 0
- Number of Subjects with Histamine levels >10 nmol/L ([1]; NA-1 1.50 mg/kg (n = 8), Day 1, 0.25 hr): 0
- Number of Subjects with Histamine levels >10 nmol/L ([1]; NA-1 1.50 mg/kg (n = 8), Day 1, 0.50 hr): 0
- Number of Subjects with Histamine levels >10 nmol/L ([1]; NA-1 1.50 mg/kg (n = 8), Day 1, 1.00 hr): 0
- Number of Subjects with Histamine levels >10 nmol/L ([1]; NA-1 1.50 mg/kg (n = 8), Day 1, 2.00 hr): 0
- Number of Subjects with Histamine levels >10 nmol/L ([1]; NA-1 1.50 mg/kg (n = 8), Day 1, 24.00 hr): 0
- Number of Subjects with Histamine levels >10 nmol/L ([1]; NA-1 1.50 mg/kg (n = 8), Day 7): 0
- Number of Subjects with Histamine levels >10 nmol/L ([1]; NA-1 1.50 mg/kg (n = 8), Day 14): 0
- Number of Subjects with Histamine levels >10 nmol/L ([1]; NA-1 1.50 mg/kg (n = 8), Day 28 End-of-study): 0
- Number of Subjects with Histamine levels >10 nmol/L ([1]; NA-1 1.50 mg/kg (n = 8), Screening): 0
- Number of Subjects with Histamine levels >10 nmol/L ([1]; NA-1 2.60 mg/kg (n = 8), Day 1, 0.00 hr): 0
- Number of Subjects with Histamine levels >10 nmol/L ([1]; NA-1 2.60 mg/kg (n = 8), Day 1, 0.08 hr): 0
- Number of Subjects with Histamine levels >10 nmol/L ([1]; NA-1 2.60 mg/kg (n = 8), Day 1, 0.17 hr): 0
- Number of Subjects with Histamine levels >10 nmol/L ([1]; NA-1 2.60 mg/kg (n = 8), Day 1, 0.25 hr): 0
- Number of Subjects with Histamine levels >10 nmol/L ([1]; NA-1 2.60 mg/kg (n = 8), Day 1, 0.50 hr): 0
- Number of Subjects with Histamine levels >10 nmol/L ([1]; NA-1 2.60 mg/kg (n = 8), Day 1, 1.00 hr): 0
- Number of Subjects with Histamine levels >10 nmol/L ([1]; NA-1 2.60 mg/kg (n = 8), Day 1, 2.00 hr): 0
- Number of Subjects with Histamine levels >10 nmol/L ([1]; NA-1 2.60 mg/kg (n = 8), Day 1, 24.00 hr): 0
- Number of Subjects with Histamine levels >10 nmol/L ([1]; NA-1 2.60 mg/kg (n = 8), Day 7): 0
- Number of Subjects with Histamine levels >10 nmol/L ([1]; NA-1 2.60 mg/kg (n = 8), Day 14): 0
- Number of Subjects with Histamine levels >10 nmol/L ([1]; NA-1 2.60 mg/kg (n = 8), Day 28 End-of-study): 0
- Number of Subjects with Histamine levels >10 nmol/L ([1]; NA-1 2.60 mg/kg (n = 8), Screening): 0
- Number of Subjects with Histamine levels >10 nmol/L ([1]; NA-1 3.75 mg/kg (n = 8), Day 1, 0.00 hr): 0
- Number of Subjects with Histamine levels >10 nmol/L ([1]; NA-1 3.75 mg/kg (n = 8), Day 1, 0.08 hr): 0
- Number of Subjects with Histamine levels >10 nmol/L ([1]; NA-1 3.75 mg/kg (n = 8), Day 1, 0.17 hr (10 minutes)): 7 of the 8
- Number of Subjects with Histamine levels >10 nmol/L ([1]; NA-1 3.75 mg/kg (n = 8), Day 1, 0.17 hr (10 minutes), listed as NA 1, 3.75 mg/kg): Seven of 8
- Number of Subjects with Histamine levels >10 nmol/L ([1]; NA-1 3.75 mg/kg (n = 8), Day 1, 0.17 hr (10 minutes), listed as NA-1, 3.75 mg/kg): 7
- Number of Subjects with Histamine levels >10 nmol/L ([1]; NA-1 3.75 mg/kg (n = 8), Day 1, 0.25 hr (15 minutes)): 3
- Number of Subjects with Histamine levels >10 nmol/L ([1]; NA-1 3.75 mg/kg (n = 8), Day 1, 0.50 hr): 0
- Number of Subjects with Histamine levels >10 nmol/L ([1]; NA-1 3.75 mg/kg (n = 8), Day 1, 1.00 hr): 0
- Number of Subjects with Histamine levels >10 nmol/L ([1]; NA-1 3.75 mg/kg (n = 8), Day 1, 2.00 hr): 0
- Number of Subjects with Histamine levels >10 nmol/L ([1]; NA-1 3.75 mg/kg (n = 8), Day 1, 24.00 hr): 0
- Number of Subjects with Histamine levels >10 nmol/L ([1]; NA-1 3.75 mg/kg (n = 8), Day 7): 0
- Number of Subjects with Histamine levels >10 nmol/L ([1]; NA-1 3.75 mg/kg (n = 8), Day 14): 0
- Number of Subjects with Histamine levels >10 nmol/L ([1]; NA-1 3.75 mg/kg (n = 8), Day 28 End-of-study): 0
- Number of Subjects with Histamine levels >10 nmol/L ([1]; NA-1 3.75 mg/kg (n = 8), Screening): 0
- Time for abnormal histamine results to return to the normal range ([1]; after drug administration): ≤ 24.00 h
- Abnormal histamine levels in other dose groups ([1]; dose groups other than 3.75 mg/kg): no treatment group had significant abnormal levels of histamine
- Mean arterial pressure ([2]; 50 mg/kg bolus over 3 minutes, all animals, FIG. 6): transient reductions in mean arterial pressure; also recorded: drop in blood pressure
- Respiratory effects ([2]; rat, 50 mg/kg): decreased tidal volume, respiratory rate and derived minute volume
- MTD [3]: 12.5 mg/kg
